Data as given in patent publication US20090241222A1, “TANDEM REAPEAT DNA CONSTRUCTS PRODUCING PROTEINS THAT ATTACK PLANT PATHOGENIC VIRUSES, FUNGI, AND BACTERIA BY DISRUPTING TRANSCRIPTION FACTORS ESSENTIAL FOR REPLICATION THEREOF IN PLANTS” (priority 2008, published 2009).
Entries after “also recorded” stand apart in the source; their conditions may differ. Like-named read-outs stand apart in the source and are kept apart here.

Assays:
Arabidopsis thaliana [1] = conditions: cited from earlier work
mammalian retroviruses = conditions: millimolar concentrations; cited from earlier work
Mammalian rotaviruses = conditions: millimolar concentrations; cited from earlier work
[2] = test system: tomato spotted wilt virus; conditions: tomato and tobacco plants; cited from earlier work
[3] = test system: Common ornamental plant cells infected by viruses; assay: Treatment of virus-infected ornamental plants; conditions: viral strains not determined
[4] = test system: HIV-1, Hepatitis C and numerous other viruses as well as the host cells; assay: Fate of virus-infected host cells after treatment; assay type: cell-based
Description: APOPTOSIS. Apoptosis is a morphological pattern of cell injury and an important mode of cell death (Robbins, Pathological Basis of Disease, 1999, 6th Ed). Apoptosis shares and overlaps common mechanisms with necrosis. […] This form of cell death is designed to eliminate defective, unwanted and damaged cells. For example, the inventors have shown that cells infected by Herpes Simplex Virus 1 (HSV; labialis) and HSV-2 genitalis are destroyed together with the host cells that they infected by apoptosis when exposed to pyridine carboxylates (Fernandez-Pol, Anticancer Res. 2002). […] Thus, the inventors believes that when host cells of animals or plants are infected by pathogenic viruses, unless the treatment is extremely quickly, the host cells and the virus will be destroyed. In fact, host cells defective, mutated, and reservoirs for the novo synthesis of viruses are unwanted host cells and must be eliminated in many instances to allow the survival of the organism.

Orobanche ramosa = conditions: Arabidopsis thaliana pre-treated with FU; cited from earlier work
[5] = target: T1, recombinant MPS-1 (CCCC zinc finger) (Homo sapiens, UniProt P42677); assay: Gel shift assay and radioactive Zn65 removal from recombinant MPS-1; assay type: biochemical
T1 construct: made in house
Description: MPS-1 is a ubiquitous tumor marker and cell growth stimulator and is described in detail in the inventors' U.S. Pat. No. 5,243,041. MPS-1 has one zinc finger domain of the type CCCC. […] This is detected by a change in the electrophoretic mobility of MPS-1 under non-denaturing conditions. These experiments indicate that picolinic acid and derivatives should remove zinc and denature various types of zinc finger, zinc ring proteins, or other types of ZF motifs whether known or heretofore undiscovered, including animal or plant viral proteins such as nucleocapsid proteins of retrovirus or the nucleocapsid proteins of Geminivirus. Furthermore, the inventors have determined that any chemical compound, whether known or heretofore undiscovered, that will remove the zinc (or other metal) and denature the proteins or that will form a ternary complex (protein-zinc-chelator) can be effective as an antiviral agent, with nontoxic effects, provided that the agent conforms with certain specific structural requirements.

HSV-2 = conditions: tissue culture and animals; cited from earlier work
Arabidopsis thaliana [6] = conditions: in vivo; cited from earlier work
HSV-1 = conditions: tissue culture and animals; cited from earlier work
NRK cells = conditions: cells treated with picolinic acid; cited from earlier work
[7] = test system: SV40 transformed BALB-3T3 cells; conditions: cited from earlier work
[8] = test system: normal cells (NRK, BALB 3T3); conditions: cited from earlier work
[9] = test system: marker defense genes PR-1, PR-2 and PDF1.2; conditions: dose-dependent and time dependent; cited from earlier work
[10] = test system: cells (iron incorporation); conditions: cited from earlier work
[11] = test system: virally-transformed cells; conditions: cited from earlier work
rice = conditions: in vivo; cited from earlier work

## COS(C)(=O)=O [MMS, Methyl Methane Sulphonate]
Arabidopsis thaliana [1]; ars27A mutant, 3 weeks
  growth and size of the plant: strongly inhibited
Arabidopsis thaliana [1]; wild type, same concentrations
  growth and size of the plant: not affecting

## O=C(O)CN(CCN(CC(=O)O)CC(=O)O)CC(=O)O [EDTA]
Mammalian retroviruses
  disintegration of viral membranes (release of reverse transcriptase): partial disintegration of viral membranes
Mammalian rotaviruses
  disintegration of viral membranes and release of Zinc Finger Proteins: partial disintegration of the viral membranes

## NC(=O)c1ncn([C@@H]2O[C@H](CO)[C@@H](O)[C@H]2O)n1 [Virazole (Ribavirin)]
[2]
  use against tomato spotted wilt virus: successfully used

## CCCCc1ccc(C(=O)O)nc1 [fusaric acid, 5-butyl picolinic acid]
[3]
  outcome of treatment of virus-infected ornamental plants: positive results
[4]
  fate of viruses and host cells after treatment: Death by apoptosis
Orobanche ramosa
  germination of the angiosperm parasite: inhibited
[5]
  removal of zinc (radioactive Zn65) from CCCC zinc finger of MPS-1: remove radioactive Zn65 from MPS-1; also recorded: remove zinc
  zinc dependent binding of recombinant MPS-1 to DNA (gel shift assays): inhibit the zinc dependent binding of recombinant MPS-1 to DNA
HSV-2
  efficacy against viral infection by HSV-2: effective
Arabidopsis thaliana [6]
  concentration eliciting plant defense responses without toxic effects: 100 nM
  concentrations that reduced root growth and induced membrane hyperpolarization/depolarization: > 500 µM
HSV-1
  efficacy against viral infection by HSV-1: effective

## O=C(O)c1ccccn1 [picolinic acid, 2-pyridine carboxylic acid]
[3]
  outcome of treatment of virus-infected ornamental plants: positive results
[4]
  fate of viruses and host cells after treatment: Death by apoptosis
NRK cells
  potency of prostaglandin E1 in elevating cyclic AMP: two to five times more potent
[7]; 3 mM picolinic acid
  mitochondrial cytochrome c release: released cytochrome c
[8]
  toxicity to normal cells: no toxic effects
[9]
  induction of marker defense genes PR-1, PR-2 and PDF1.2: all induced
[5]
  removal of zinc (radioactive Zn65) from CCCC zinc finger of MPS-1: remove radioactive Zn65 from MPS-1; also recorded: remove zinc
  zinc dependent binding of recombinant MPS-1 to DNA (gel shift assays): inhibit the zinc dependent binding of recombinant MPS-1 to DNA
[10]
  incorporation of iron into the cells: inhibits incorporation of iron into the cells
  removal of radioiron from the cells: effectively removes radioiron from the cells
[11]; Kirsten sarcoma virus transformed cells
  cell cycle arrest, Flow Microfluorometric Analysis of DNA: G1 phase
[11]; longer exposure/further incubation
  cytotoxicity in transformed cells: cytotoxicity and cell death was observed in all transformed cells; also recorded: cell death by apoptosis was observed in all transformed cells
rice
  hypersensitive response (HR): elicit the hypersensitive response (HR)

## NC(=O)c1cccnc1 [Nicotinamide, reference compound]
[7]; at 48 h
  effect on cell growth or apoptosis: no effect

## O=C(O)CN(CCOCCOCCN(CC(=O)O)CC(=O)O)CC(=O)O [EGTA]
Mammalian retroviruses
  disintegration of viral membranes (release of reverse transcriptase): partial disintegration of viral membranes
Mammalian rotaviruses
  disintegration of viral membranes and release of Zinc Finger Proteins: partial disintegration of the viral membranes
